Source: patent US20160220626A1, “REVERSAL OF INSULIN RESISTANCE AND DYSLIPIDEMIA IN HIGH-FAT DIET-INDUCED OBESE RAT MODELS BY PHYSALIS MINIMA L. EXTRACT” (priority 2015, published 2016)

Assays:
Type in all cases: in vivo, male Wistar rats
[1] = tested on: high-fat diet-induced obese rats; assay: Liver toxicity assessment after 12 weeks of treatment; conditions: serum, 150 mg/kg, mean ± SE
Procedure: (§1) Extract supplementation. […] The HF fed rats were then sub-divided into four groups of three rats each, i.e. Group 1, negative control/pathological control, treated with distilled water; Group 2, positive control, treated with 150 mg/kg of standard drug metformin (Met); Groups 3 and 4, treated groups, received the P. minima extract at doses of 150 and 300 mg/kg, respectively. Normal control rats also received distilled water throughout the treatment for a period of 12 weeks. All the groups, except the control group, were on high-fat diet during the treatment period.
(§2) Blood and tissue collection and sample preparation. For biochemical analysis after 16 weeks of experimental diet, the blood samples were taken from the tail vein after an overnight fast, whereas after 12 weeks of treatment period, rats were subjected to anesthesia and blood was drawn by cardiac puncture. Liver and pancreas samples were prepared and stained with hematoxylin and eosin, as described by Castro and co-workers. The liver was excised and fixed in buffered formalin. The sectioned liver tissue segments were stained with hematoxylin-eosin (H-E) and observed under light microscope.
Biochemical measurements. Blood glucose, serum insulin, total cholesterol, triglycerides, HDL, LDL, very low density lipoproteins ([…]), urea, creatnine, aspartate aminotransferase ([…]), alkaline phosphatase (ALP), serum glutamic pyruvic transaminase (SGPT), and direct and total bilirubin were estimated. Fasting blood glucose levels were measured using glucometer (Accu Chek Performa, Australia). Fasting insulin levels were quantified using ultra sensitive rat insulin ELISA kit (Crystal Chem, Downers Grove, USA). Insulin sensitivity was evaluated using Homeostatic Model Assessment (HOMA). Serum total cholesterol, triglycerides, HDL, LDL, VLDL, urea, creatnine, AST, ALP, SGPT, and direct and total bilirubins were analysed using automatic analyser (Hitachi, Roche Diagnostics 902, Tokyo, Japan).
Evaluation of renal and liver toxicity of P. minima extract: Serum urea, creatnine, aspartate aminotransferase ([…]), alkaline phosphatase (ALP), serum glutamic pyruvic transaminase (SGPT), and total and direct bilirubins were measured to evaluate the toxicity of P. minima towards liver and kidney.

[2] = tested on: high-fat diet-induced obese rats; assay: Renal toxicity assessment after 12 weeks of treatment; conditions: serum, 150 mg/kg, mean ± SE
Procedure: as §1
Blood and tissue collection and sample preparation. For biochemical analysis after 16 weeks of experimental diet, the blood samples were taken from the tail vein after an overnight fast, whereas after 12 weeks of treatment period, rats were subjected to anesthesia and blood was drawn by cardiac puncture. […]
Biochemical measurements. […] Fasting blood glucose levels were measured using glucometer (Accu Chek Performa, Australia). Fasting insulin levels were quantified using ultra sensitive rat insulin ELISA kit (Crystal Chem, Downers Grove, USA). Insulin sensitivity was evaluated using Homeostatic Model Assessment (HOMA). Serum total cholesterol, triglycerides, HDL, LDL, VLDL, urea, creatnine, AST, ALP, SGPT, and direct and total bilirubins were analysed using automatic analyser (Hitachi, Roche Diagnostics 902, Tokyo, Japan). […]

[3] = tested on: insulin resistant high-fat diet-induced obese rats; assay: Extract supplementation in insulin resistant high-fat diet-induced obese rats: body weight, food intake, lipid profile, insulin resistance
Procedure: as §1
as §2, with “The sectioned liver tissue segments were stained with hematoxylin-eosin (H-E) and observed under light microscope.” left out
Biochemical measurements. […] Fasting blood glucose levels were measured using glucometer (Accu Chek Performa, Australia). Fasting insulin levels were quantified using ultra sensitive rat insulin ELISA kit (Crystal Chem, Downers Grove, USA). Insulin sensitivity was evaluated using Homeostatic Model Assessment (HOMA).

[4] = tested on: high-fat diet-induced obese rats; assay: Histopathology of liver (H&E staining, light microscopy); conditions: metformin 150 mg/kg; P. minima 150 and 300 mg/kg; versus pathological control (FIG. 8)
Procedure: as §1, §2

In the case of CN(C)C(=N)N=C(N)N [Metformin], the ALP [1] is reported as 49.5 ± 1.5 U/L, the “AST (aspartate aminotransferase)” value [1] is reported as 1.5 ± 0.5 U/L and the Direct bilirubin [1] is reported as 0.02 ± 0 mg/dL. The SGPT [1] was 48.5 ± 1.5 U/L, the Total bilirubin [1] was 0.275 ± 0.025 mg/dL and the Creatnine [2] was 0.35 ± 0 mg/dL. The Urea [2] was 31 ± 0 mg/dL, the “reduction in body weights” value ([3]; 150 mg/kg daily, 12 weeks, on high-fat diet, pathological control gained about 109 g, control 75 g) was about 35 g and the average food intake ([3]; supplemented groups, 12 weeks of treatment, high-fat diet rats) was “Decrease”. The “hepatic steatosis (liver morphology, H&E)” value [4] was “reversed the condition to the normal”.
